Values after ≈ are worked out from the molar mass of the structure shown.
Experiments:
[1] = system: HT-29, MCF-7, NCI-H460, SF268, and IMR90 cells; experiment: Cytotoxicity against the panel of cell lines; type: cell-based, Human
[2] = system: M. tuberculosis, M. smegmatis, C. albicans, E. coli, and A. baumanii; experiment: Antimicrobial activity against a panel of microorganisms; type: cell-based
Vero cells = experiment: Vero cell cytotoxicity
IMR90 cells = experiment: Cytotoxicity against IMR90 cells; type: cell-based, Human
Staphylococcus aureus = experiment: Antimicrobial activity; type: cell-based
Candida albicans = experiment: Antimicrobial activity; type: cell-based
Acinetobacter baumannii = experiment: Antimicrobial activity; type: cell-based
[3] = system: Mycobacterium tuberculosis
Escherichia coli = experiment: Antimicrobial activity; type: cell-based
Mycobacterium smegmatis = experiment: Antimicrobial activity; type: cell-based

## C=C[C@]1(C)CC2C(=O)c3c(NC=O)cccc3C(C)(C)[C@H]2C[C@H]1O (relative stereo) [13-hydroxy dechlorofontonamide (3), 13-hydroxy dechlorofontonamide]
[1]; all cell lines tested (HT-29, MCF-7, NCI-H460, SF268, IMR90)
  cytotoxicity (in words): inactive
[2]
  antimicrobial activity (in words): no antimicrobial activity

## [C-]#[N+]C1=C2c3c[nH]c4cccc(c34)C(C)(C)[C@H]2CC[C@]1(C)C=C [Deschloro hapalindole I (2), deschloro hapalindole I]
[2]
  antimicrobial activity (in words): no antimicrobial activity

## [C-]#[N+][C@@H]1[C@H]2c3c[nH]c4cccc(c34)C(C)(C)[C@@H]2CC[C@]1(C)C=C [Hapalindole H]
[1]; Homo sapiens, read-out: IC50 values (range over cell lines)
  IC50: 8.5 to 31.9 µM

## [C-]#[N+]C1=C2c3c[nH]c4cccc(c34)C(C)(C)[C@H]2C[C@@H](Cl)[C@]1(C)C=C [Hapalindole I]
Vero cells
  cytotoxicity against Vero cells (in words): no detectable cytotoxicity

## [C-]#[N+][C@H]1C(=C)[C@@H](C=C)C[C@@H]2[C@@H]1c1c[nH]c3cccc(c13)C2(C)C [Hapalindole X (1), hapalindole X]
IMR90 cells
  cytotoxicity (in words): relatively low cytotoxicity
[1]; all four cancer cells (HT-29, MCF-7, NCI-H460, SF268)
  cytotoxicity (in words): moderate cytotoxicity

## [C-]#[N+][C@@H]1[C@H]2C(=O)c3c(NC=O)cccc3C(C)(C)[C@@H]2CC[C@]1(C)C=C [Hapalonamide H]
Staphylococcus aureus
  MIC S. aureus: > 100 µM
Candida albicans
  MIC C. albicans: < 0.6 µM
Acinetobacter baumannii
  MIC A. baumanii: > 100 µM
Vero cells; read-out: IC50 Vero, Vero cell toxicity
  IC50: 13.6 µM
[3]
  MIC M. tuberculosis: 1.2 µM (≈ 0.404 µg/mL)
Escherichia coli
  MIC E. coli: > 100 µM
Mycobacterium smegmatis
  MIC M. smegmatis: 34.3 µM (≈ 11.5 µg/mL)

## Gentamycin [reference compound]
Escherichia coli
  MIC E. coli: 2.3 µM

From article PMC3429353 (Bioorganic & medicinal chemistry, 2012)
